Measured values as given in PubChem BioAssay (NCI).
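Five concentrations, 48 hours, 96-well plates. Definition used: TGI = concentration required for complete inhibition of growth.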 The source made the active and inactive calls. Cut-off read from the data, not from the text of the source: active = GI50 below about 0.43 µM; inactive = the rest.

Columns and labels:
Assay in all cases: inhibition of tumour cell growth, NCI panel, 48 h
M19-MEL melanoma = tested on: M19-MEL melanoma
SF-295 CNS = tested on: SF-295 CNS
SF-268 CNS = tested on: SF-268 CNS
MALME-3M melanoma = tested on: MALME-3M melanoma
HCT-116 colon = tested on: HCT-116 colon
OVCAR-5 ovarian = tested on: OVCAR-5 ovarian
HCT-15 colon = tested on: HCT-15 colon
IGROV1 ovarian = tested on: IGROV1 ovarian
RPMI-8226 leukemia = tested on: RPMI-8226 leukemia
ACHN renal = tested on: ACHN renal
LOX IMVI melanoma = tested on: LOX IMVI melanoma
SNB-78 CNS = tested on: SNB-78 CNS
KM12 colon = tested on: KM12 colon
EKVX NSCLC = tested on: EKVX NSCLC
SN12C renal = tested on: SN12C renal
OVCAR-4 ovarian = tested on: OVCAR-4 ovarian
NCI/ADR-RES ovarian = tested on: NCI/ADR-RES ovarian
HT29 colon = tested on: HT29 colon
K-562 leukemia = tested on: K-562 leukemia
SK-OV-3 ovarian = tested on: SK-OV-3 ovarian
CAKI-1 renal = tested on: CAKI-1 renal
SW-620 colon = tested on: SW-620 colon
DMS 114 small cell lung = tested on: DMS 114 small cell lung
MDA-N = tested on: MDA-N
KM20L2 colon = tested on: KM20L2 colon
786-0 renal = tested on: 786-0 renal
SR leukemia = tested on: SR leukemia
SNB-75 CNS = tested on: SNB-75 CNS
HOP-92 NSCLC = tested on: HOP-92 NSCLC
A549 NSCLC = tested on: A549 NSCLC
DLD-1 colon = tested on: DLD-1 colon
OVCAR-8 ovarian = tested on: OVCAR-8 ovarian
M14 melanoma = tested on: M14 melanoma
A498 renal = tested on: A498 renal
UACC-257 melanoma = tested on: UACC-257 melanoma
TK-10 renal = tested on: TK-10 renal
NCI-H226 lung = tested on: NCI-H226 lung
SK-MEL-28 melanoma = tested on: SK-MEL-28 melanoma
SNB-19 CNS = tested on: SNB-19 CNS
HCC-2998 colon = tested on: HCC-2998 colon
T-47D breast = tested on: T-47D breast
UO-31 renal = tested on: UO-31 renal
LXFL 529 NSCLC = tested on: LXFL 529 NSCLC
MOLT-4 leukemia = tested on: MOLT-4 leukemia
PC-3 prostate = tested on: PC-3 prostate
NCI-H522 lung = tested on: NCI-H522 lung
NCI-H460 lung = tested on: NCI-H460 lung
MDA-MB-435 = tested on: MDA-MB-435
SK-MEL-2 melanoma = tested on: SK-MEL-2 melanoma
U251 CNS = tested on: U251 CNS
COLO 205 colon = tested on: COLO 205 colon
HL-60(TB) leukemia = tested on: HL-60(TB) leukemia
OVCAR-3 ovarian = tested on: OVCAR-3 ovarian
HOP-62 NSCLC = tested on: HOP-62 NSCLC
NCI-H23 lung = tested on: NCI-H23 lung
UACC-62 melanoma = tested on: UACC-62 melanoma
RXF 393 renal = tested on: RXF 393 renal
SK-MEL-5 melanoma = tested on: SK-MEL-5 melanoma
MCF7 breast = tested on: MCF7 breast
DU-145 prostate = tested on: DU-145 prostate
DMS 273 small cell lung = tested on: DMS 273 small cell lung
SF-539 CNS = tested on: SF-539 CNS
CCRF-CEM leukemia = tested on: CCRF-CEM leukemia
MDA-MB-231 breast = tested on: MDA-MB-231 breast

`Nc1ncnc2c1ncn2C1CC(O)C(CO)O1` (stereo unspecified) gave a TGI (M19-MEL melanoma) of over 100 µM, a TGI (SF-295 CNS) of over 100 µM and a TGI (SF-268 CNS) of over 100 µM. It also gave a TGI (MALME-3M melanoma) of over 100 µM, a TGI (HCT-116 colon) of over 100 µM and a TGI (OVCAR-5 ovarian) of over 100 µM. The TGI (HCT-15 colon) was over 100 µM, the TGI (IGROV1 ovarian) was over 100 µM and the TGI (RPMI-8226 leukemia) was over 100 µM. It also gave a TGI (ACHN renal) of over 100 µM, a TGI (LOX IMVI melanoma) of over 100 µM and a TGI (SNB-78 CNS) of over 100 µM. For the same compound, the TGI (KM12 colon) was over 100 µM, the TGI (EKVX NSCLC) was over 100 µM and the TGI (SN12C renal) was over 100 µM. It also gave a TGI (OVCAR-4 ovarian) of over 100 µM, a TGI (NCI/ADR-RES ovarian) of over 100 µM and a TGI (HT29 colon) of over 100 µM. For the same compound, the TGI (K-562 leukemia) was over 100 µM, the TGI (SK-OV-3 ovarian) was over 100 µM and the TGI (CAKI-1 renal) was over 100 µM. For the same compound, the TGI (SW-620 colon) was over 100 µM, the TGI (DMS 114 small cell lung) was over 100 µM and the TGI (MDA-N) was over 100 µM. For the same compound, the TGI (KM20L2 colon) was over 100 µM, the TGI (786-0 renal) was over 100 µM and the TGI (SR leukemia) was over 100 µM. For the same compound, the TGI (SNB-75 CNS) was over 100 µM, the TGI (HOP-92 NSCLC) was over 100 µM and the TGI (A549 NSCLC) was over 100 µM. It also gave a TGI (DLD-1 colon) of over 100 µM, a TGI (OVCAR-8 ovarian) of over 100 µM and a TGI (M14 melanoma) of over 100 µM. For the same compound, the TGI (A498 renal) was over 100 µM, the TGI (UACC-257 melanoma) was over 100 µM and the TGI (TK-10 renal) was over 100 µM. For the same compound, the TGI (NCI-H226 lung) was over 100 µM, the TGI (SK-MEL-28 melanoma) was over 100 µM and the TGI (SNB-19 CNS) was over 100 µM. For the same compound, the TGI (HCC-2998 colon) was over 100 µM, the TGI (T-47D breast) was over 100 µM and the TGI (UO-31 renal) was over 100 µM. For the same compound, the TGI (LXFL 529 NSCLC) was over 100 µM, the TGI (MOLT-4 leukemia) was over 100 µM and the TGI (PC-3 prostate) was over 100 µM. For the same compound, the TGI (NCI-H522 lung) was over 100 µM, the TGI (NCI-H460 lung) was over 100 µM and the TGI (MDA-MB-435) was over 100 µM. The TGI (SK-MEL-2 melanoma) was over 100 µM, the TGI (U251 CNS) was over 100 µM and the TGI (COLO 205 colon) was over 100 µM. The TGI (HL-60(TB) leukemia) was over 100 µM, the TGI (OVCAR-3 ovarian) was over 100 µM and the TGI (HOP-62 NSCLC) was over 100 µM. The TGI (NCI-H23 lung) was over 100 µM, the TGI (UACC-62 melanoma) was over 100 µM and the TGI (RXF 393 renal) was over 100 µM. The TGI (SK-MEL-5 melanoma) was over 100 µM, the TGI (MCF7 breast) was over 100 µM and the TGI (DU-145 prostate) was over 100 µM. For the same compound, the TGI (DMS 273 small cell lung) was over 100 µM, the TGI (SF-539 CNS) was over 100 µM and the TGI (CCRF-CEM leukemia) was over 100 µM. The TGI (MDA-MB-231 breast) was over 100 µM.
In the case of `O=C1CC2CC(O1)[C@H]1O[C@H]1C2` (stereo partly specified), the outcome (M19-MEL melanoma) is reported as “inactive”, the outcome (SF-295 CNS) is reported as “inactive” and the outcome (SF-268 CNS) is reported as “inactive”. The outcome (MALME-3M melanoma) was “inactive”, the outcome (HCT-116 colon) was “inactive” and the outcome (OVCAR-5 ovarian) was “inactive”. For the same compound, the outcome (HCT-15 colon) was “inactive”, the outcome (IGROV1 ovarian) was “inactive” and the outcome (RPMI-8226 leukemia) was “inactive”. The outcome (ACHN renal) was “inactive”, the outcome (LOX IMVI melanoma) was “inactive” and the outcome (SNB-78 CNS) was “inactive”. For the same compound, the outcome (KM12 colon) was “inactive”, the outcome (EKVX NSCLC) was “inactive” and the outcome (SN12C renal) was “inactive”. For the same compound, the outcome (OVCAR-4 ovarian) was “inactive”, the outcome (HT29 colon) was “inactive” and the outcome (K-562 leukemia) was “inactive”. The outcome (SK-OV-3 ovarian) was “inactive”, the outcome (CAKI-1 renal) was “inactive” and the outcome (SW-620 colon) was “inactive”. For the same compound, the outcome (DMS 114 small cell lung) was “inactive”, the outcome (KM20L2 colon) was “inactive” and the outcome (786-0 renal) was “inactive”. The outcome (SR leukemia) was “inactive”, the outcome (SNB-75 CNS) was “inactive” and the outcome (HOP-92 NSCLC) was “inactive”. The outcome (A549 NSCLC) was “inactive”, the outcome (DLD-1 colon) was “inactive” and the outcome (OVCAR-8 ovarian) was “inactive”. For the same compound, the outcome (M14 melanoma) was “inactive”, the outcome (UACC-257 melanoma) was “inactive” and the outcome (NCI-H226 lung) was “inactive”. The outcome (SNB-19 CNS) was “inactive”, the outcome (HCC-2998 colon) was “inactive” and the outcome (UO-31 renal) was “inactive”. The outcome (LXFL 529 NSCLC) was “inactive”, the outcome (MOLT-4 leukemia) was “inactive” and the outcome (NCI-H522 lung) was “inactive”. For the same compound, the outcome (NCI-H460 lung) was “inactive”, the outcome (SK-MEL-2 melanoma) was “inactive” and the outcome (U251 CNS) was “inactive”. The outcome (COLO 205 colon) was “inactive”, the outcome (HL-60(TB) leukemia) was “inactive” and the outcome (OVCAR-3 ovarian) was “inactive”. For the same compound, the outcome (HOP-62 NSCLC) was “inactive”, the outcome (NCI-H23 lung) was “inactive” and the outcome (UACC-62 melanoma) was “inactive”. For the same compound, the outcome (RXF 393 renal) was “inactive”, the outcome (DMS 273 small cell lung) was “inactive” and the outcome (SF-539 CNS) was “inactive”. The outcome (CCRF-CEM leukemia) was “inactive”.
